Laboratory results taken from patent publication US20260023070A1, “OPTOGENETIC ALPHA-SYNUCLEIN AGGREGATION SYSTEM-BASED COMPOUND SCREENING PLATFORM IN PD-hiPSC-mDA NEURONS” (The Johns Hopkins University, priority 2022, published 2026).

What was measured:
opto-α-syn SH-SY5Y cells = assay: OASIS-based high-content imaging assay of light-induced α-syn aggregation (5G4 staining, Aggregates Induction Score); format: cell-based, human; conditions: for AIS compared to blue light-illuminated DMSO control: two independent experiments, 24-well culture conditions, blue light stimulation; for AIS, aggregates induction score: validation of 19 hits, 24-well plates, blue light, AIS normalized to positive control (blue light, DMSO) set as 1.0
Description: The opto-α-syn expressing SH-SY5Y cells were seeded in 96-well black flat bottom imaging microplates (Falcon) at 30,000 cells per well in 100 μL of complete media using E1-ClipTip electronic multichannel pipette (Thermo Fisher Scientific) and incubated in 37° C. and 5% CO2 humidified incubator. After 18 h of incubation, 10 μL of 10 μM compounds (column 2 to 10) or 1% DMSO (column 1 and 12) were added (final concentration of DMSO is 0.1%). In order to induce aggregations, the plates were illuminated with blue light (26 μW/mm^2) on customized blue light illumination 96-well plates for 2 h. Afterward, cells were fixed in 4% paraformaldehyde (PFA) for 15 min and stained with the aggregated-α-syn antibody (5G4) after permeabilization with 0.1% Triton X-100/0.5% BSA/PBS solution. […] To analyze images, the automated aggregation quantification algorithm and cell counting algorithm in the form of macro are developed using ImageJ software. Briefly, the algorithm includes the inversion, subtracting background, threshold selection, analyzing particles with ranged size and circularity. The Aggregates Induction Score (AIS) is calculated using, the following equation: […]
where N^agg is the number of aggregates, ^Ntotal is the number of total cells. The AIS in each well is normalized by the AIS in positive control which is set as 1.0. […] The hit selection strategy was based on calculated AIS; hits were defined as AIS<0.5. […] Two independent experiments were performed, and total 10 images per well are analyzed to calculate AIS.
As illustrated in FIGS. 8A-8E, high-content imaging screening with the optogenetic α-syn aggregation system was performed, following the schematic representation of the process of high-content imaging (HCI) screening with optogenetics-assisted method of alpha-synuclein aggregation induction system (OASIS) (FIG. 8A). SH-SY5Y cells expressing opto-α-syn were in dark or exposed to blue light (26 μW/mm^2 at 470 nm, 1 Hz, 1 s) for 1.5 h under 96-well plate culture conditions, and then immunostained with 5G4 antibody. The equation of Aggregates Induction Score (AIS) (FIG. 8B) was used for the calculation of Z′-factor for HCI screening with OASIS (FIG. 8C). […] Arrow represents the degree of separation (Z′-factor) between light-illuminated and darkness controls. […] Detailed information of numbered compounds was described in Table 1. One-way ANOVA followed by Dunnett's post hoc test (n=10 or 20, 5 or 10 images each from two independent experiments). *P<0.05, **P<0.01, ***P<0.001, ****P<0.0001.
As illustrated in FIGS. 9A-9B, high-content imaging screening with the optogenetic α-syn aggregation system was performed. The measurement of 5G4^+ aggregates in opto-mock or opto-α-syn SH-SY5Y neuronal cells was assessed. Cells were in dark or exposed to blue light (26 μW/mm^2 at 470 nm, 1 Hz, 1 s) for 1.5 h, and then immunostained with 5G4 antibody. […] Images were converted to grayscale, and a threshold was adjusted to exclude the background based on the size of particles. Once the value of threshold was determined, all the images were applied with the fixed threshold, and then the number of aggregates was measured (FIG. 9A). Number of DAPI from the original images were counted (FIG. 9B). Representative images of opto-α-syn SH-SY5Y neuronal cells treated with 19 compounds under 24-well plate culture conditions were imaged. SH-SY5Y cells expressing opto-α-syn were in dark or exposed to blue light (34 μW/mm^2 at 470 nm, 1 Hz, 0.5 s) for 1.5 h, and then immunostained with 5G4 antibody.

[1] = test system: opto-α-syn PD hiPSC-derived mDA neurons; assay: Light-induced α-syn aggregation and neurotoxicity in opto-α-syn PD hiPSC-derived mDA neurons; format: cell-based, human; conditions: blue light 7 days; compared to DMSO control; significant at 1 and 10 nM CDC, 10 and 100 nM BAG
Description: Whether these potential hit compounds can inhibit α-syn aggregation and rescue aggregation-induced neuronal toxicity was tested on PD hiPSC-derived mDA neurons. The top 5 ranked small compounds in FIGURE SE were selected and these compounds to were used to treat opto-α-syn PD hiPSC-derived mDA neurons at three different concentrations (1 nM, 10 nM, 100 nM) with blue light stimulation. […] Overall, the two compounds were finally selected among the potential hit drugs from our novel opto-α-syn neuronal cell model-based primary screening (FIG. 11D), and they considerably rescued neuronal cell death from aggregation-induced TH^+ mDA neuron-selective toxicity in PD-iPSC derived neurons. To identify possible molecules involved in this compound-mediated recovery of TH^+ mDA neurons, RNA-sequencing (RNA-seq) analysis was performed with four different samples (dark condition with DMSO, blue light stimulation with DMSO, blue light stimulation with BAG treatment, and blue light stimulation with CDC treatment). To find BAG- or CDC-responsive genes, differentially expressed genes (DEGs) of DMSO-treated samples upon blue light stimulation were first extracted, and then the DEGs were filtered with criteria of which became non-DEGs in response to CDC or BAG treatment. […]
The effect of 5 selected compounds on opto-α-syn-expressing PD hiPSC-derived mDA neurons was evaluated. […]

[2] = test system: mouse primary neurons treated with α-syn PFF; assay: α-syn PFF model in mouse primary neurons (TX-insoluble pathologic α-syn); format: cell-based
Description: To validate the effects of these two compounds on the OASIS-independent model, α-syn PFF were treated with mouse primary neurons and non-OASIS-human PD hiPSC-derived mDA neurons with CDC 021 and BAG 956.

[3] = test system: blue light-illuminated opto-α-syn-mDA neurons; assay: Autophagy and aggregate clearance in blue light-illuminated opto-α-syn-mDA neurons; format: cell-based, human; conditions: additional treatment with BAG 956, blue light-illuminating condition
Description: Because autophagy can be activated by the inhibition of PI 3-kinase (PI3K) or the PDK1 pathway, it was tested whether treatment with BAG 956 can induce the autophagic flux to decrease α-syn aggregates in opto-α-syn mDA neurons and MOs.

Cc1cc(Nc2nc(N[C@@H](C)c3ncc(F)cn3)ncc2Cl)n[nH]1 [AZD 1480]
AIS compared to blue light-illuminated DMSO control (opto-α-syn SH-SY5Y cells): significant decrease | AIS, aggregates induction score (opto-α-syn SH-SY5Y cells): 0.31

CC(C)c1ccc2oc3nc(N)c(C(=O)O)cc3c(=O)c2c1 [Amlexanox]
AIS, aggregates induction score (opto-α-syn SH-SY5Y cells): 0.53

O=C1NC(=O)c2c1c1c3ccccc3[nH]c1c1[nH]c3ccccc3c21 [Arcyriaflavin A]
AIS compared to blue light-illuminated DMSO control (opto-α-syn SH-SY5Y cells): significant decrease | AIS, aggregates induction score (opto-α-syn SH-SY5Y cells): 0.37

CC1(C)C(=O)N=C2C1=C(O)C(=O)c1ccccc12 [BVT 948]
AIS compared to blue light-illuminated DMSO control (opto-α-syn SH-SY5Y cells): significant decrease | AIS, aggregates induction score (opto-α-syn SH-SY5Y cells): 0.36

COc1cc2nc(N3CCC(N4CCCCC4)CC3)nc(NC3CCCCCC3)c2cc1OC.Cl.Cl [C 021 dihydrochloride]
AIS compared to blue light-illuminated DMSO control (opto-α-syn SH-SY5Y cells): significant decrease | AIS, aggregates induction score (opto-α-syn SH-SY5Y cells): 0.19 | survival rate of TH+ mDA neurons [1]: significant increase | pathologic α-syn in the Triton X-100 (TX)-insoluble fraction [2]: significantly reduced

O=C1CCc2cc(OCCCCc3nnnn3C3CCCCC3)ccc2N1 [Cilostazol]
AIS, aggregates induction score (opto-α-syn SH-SY5Y cells): 0.65

CCCCCCCCCCC(C)(C)C(=O)Nc1c(OC)cc(OC)cc1OC [Compound C1976, CI 976]
AIS, aggregates induction score (opto-α-syn SH-SY5Y cells): 0.63

NS(=O)(=O)c1cc2c(cc1Cl)NC(C1CC3C=CC1C3)NS2(=O)=O (stereo not shown) [Cyclothiazide]
AIS, aggregates induction score (opto-α-syn SH-SY5Y cells): 0.68

C[C@@H]1C[C@H]2[C@@H]3CCC4=CC(=O)C=C[C@]4(C)[C@@]3(F)[C@@H](O)C[C@]2(C)[C@@]1(O)C(=O)CO [Dexamethasone]
AIS, aggregates induction score (opto-α-syn SH-SY5Y cells): 0.74

O=C(O)c1ccccc1C(=O)Nc1ccc(-c2ccccc2)cc1 [Kartogenin]
AIS, aggregates induction score (opto-α-syn SH-SY5Y cells): 0.98

COc1c(C)c2c(c(O)c1C/C=C(\C)CCC(=O)OCCN1CCOCC1)C(=O)OC2 [Mycophenolate mofetil]
AIS, aggregates induction score (opto-α-syn SH-SY5Y cells): 0.71

COc1c(C)c2c(c(O)c1C/C=C(\C)CCC(=O)O)C(=O)OC2 [Mycophenolic acid]
AIS, aggregates induction score (opto-α-syn SH-SY5Y cells): 0.57

CCCN(CCC)CCc1ccc(OC)c(OCCc2ccccc2)c1.Cl [NE 100 hydrochloride]
AIS, aggregates induction score (opto-α-syn SH-SY5Y cells): 0.53

CC(=O)c1cc2c(o1)C(=O)c1ccccc1C2=O [Napabucasin]
AIS, aggregates induction score (opto-α-syn SH-SY5Y cells): 0.97

CCOC(=O)c1ccc(N(C)c2csc(-c3ccccc3)n2)cc1 [Neuropathiazol]
AIS, aggregates induction score (opto-α-syn SH-SY5Y cells): 0.73

CN(C)CCc1c[nH]c2ccc(Cn3cncn3)cc12 [Rizatriptan benzoate]
AIS, aggregates induction score (opto-α-syn SH-SY5Y cells): 0.59

CCc1c(C(=O)Nc2cc(S(=O)(=O)N(CC)CC)ccc2O)[nH]c(C)c1C(C)=O [XD 14]
AIS, aggregates induction score (opto-α-syn SH-SY5Y cells): 0.75

CO/C1=C\C(C)=C\[C@@H](C)[C@@H](O)[C@@H](C)C/C(C)=C/C=C/[C@H](OC)[C@@H]([C@@H](C)[C@@H](O)[C@H](C)[C@@]2(O)C[C@@H](O)[C@H](C)[C@@H](C(C)C)O2)OC1=O [bafilomycin A1]
BAG 956-mediated level of TH+ mDA neurons [3]: reversed | BAG 956-mediated reduction of 5G4+ α-syn aggregates [3]: reversed
